Experiment: Solubility of FDCA in acetic acid/water mixtures
Type: physicochemical

Solubility (0 Vol % HOAc / 100 Vol % H2O, 25° C.): 0.086 wt %
Solubility (0 Vol % HOAc / 100 Vol % H2O, 70° C.): 0.327 wt %
Solubility in 40/60 HOAc/H2O relative to pure water (40/60 HOAc/H2O versus pure water): about twice the solubility in pure water
Solubility (40 Vol % HOAc / 60 Vol % H2O, 25° C.): 0.153 wt %
Solubility (40 Vol % HOAc / 60 Vol % H2O, 70° C.): 0.779 wt %
Solubility (50 Vol % HOAc / 50 Vol % H2O, 25° C.): 0.173 wt %
Solubility (50 Vol % HOAc / 50 Vol % H2O, 70° C.): 0.746 wt %
Solubility (60 Vol % HOAc / 40 Vol % H2O, 25° C.): 0.171 wt %
Solubility (60 Vol % HOAc / 40 Vol % H2O, 70° C.): 0.596 wt %
Solubility (70 Vol % HOAc / 30 Vol % H2O, 25° C.): 0.143 wt %
Solubility (70 Vol % HOAc / 30 Vol % H2O, 70° C.): 0.592 wt %
Solubility (90 Vol % HOAc / 10 Vol % H2O, 25° C.): 0.138 wt %
Solubility (90 Vol % HOAc / 10 Vol % H2O, 70° C.): 0.458 wt %
Solubility (100 Vol % HOAc / 0 Vol % H2O, 25° C.): 0.080 wt %
Solubility (100 Vol % HOAc / 0 Vol % H2O, 70° C.): 0.193 wt %
SMILES: O=C(O)c1ccc(C(=O)O)o1 [FDCA]
